Values quoted from earlier work in patent US6831088B2, “3-heterocyclypropanohydroxamic acid PCP inhibitors” (Pfizer Inc., priority 2001, dated 2004).
Read-outs that look alike come from different tables or passages of the source.

System: PCP

[Cl-].[Na+] [NaCl]
activity of PCP relative to that observed with the standard assay concentration of 0.15M (0.2M NaCl): 66%
activity of PCP relative to that observed with the standard assay concentration of 0.15M (0.3M NaCl): 38%
activity of PCP relative to that observed with the standard assay concentration of 0.15M (0.5M NaCl): 25%
